The values that follow come from patent US11311560B2, “Cyclic plasmenylethanolamines” (MED-LIFE DISCOVERIES LP, priority 2017, dated 2022).

The test system of data set [1] is wild-type mouse hippocampal brain slices. The data set can be described thus: Long term potentiation (LTP) on multi-electrode array. Type of data set: cell-based. To be noted: 0.5 μM, monitored for 60 mins, vs vehicle (0.2% DMSO). The protocol:
It is hypothesized that brain plasmalogen levels affect neurotransmission. Accordingly, in this study, wild-type mouse hippocampal brain slices were incubated in artificial cerebro-spinal fluid containing either vehicle or PPI-1040. The slices were incubated on a multi-electrode array (MEA) with electrodes spaced 100 μm apart. A single electrode was selected to stimulate Schaffer collaterals cells which triggered field excitatory post-synaptic potential (fEPSP) in the stratum radiatum. After 10 minutes of control recording, in the presences of either PPI-1040 or vehicle, long term potentiation (LTP) was induced by a single train of 10 bursts composed of 4 stimuli at 100 Hz each with a 200 millisecond interval between.

In another data set the test system is Pex7 hypomorph/null mice. The data set can be described thus: 4 weeks oral treatment of Pex7 hypomorph/null animals: plasmalogen levels in plasma and tissues. Type of data set: in vivo, mouse. To be noted: 50 mg/kg oral gavage, 5 days per week. The source says:
The Pex7 hypomorph/null model is a hypomorphic (B6;129S6-Pex7^tm2.3Brav/s9) mouse model on a mixed background (C57BL/6NCrl and 129S6/SvEvTac). The hypomorphic allele in Pex7 hypomorph/null was generated by inserting an inverse neo cassette into intron 2 and lox P sites surrounding exon 3. The Pex7 null allele was generated using (B6.C-Tg(cmv-cre)1Cgn/J) mouse. The Pex7 hypomorph/null mouse model has 90% survival, 0.016-0.257% of wild type Pex7 mRNA levels and 20-30% plasmalogen levels Pex7 hypomoprh/null mice (3-4 months); and wild-type animals, males and females included in treatments and behavioral tests. Pex7 hypomorph/null mice were randomly assigned, after a baseline open field test, into 3 treatment groups: PPI-1040, PPI-1011, and vehicle controls, n=6 mice per group). PPI-1011 or PPI-1040 at 50 mg/kg was given by oral gavage 5 days per week (Monday-Friday) for 4 weeks. During the treatment period, animals were weighed weekly and observed for signs of distress. The open field test was performed at the end of treatment. To avoid selection bias, data analysis was performed only at the study end. Animals were sacrificed after a 24-hour post the last dose.
Tissue samples frozen by submersion in liquid nitrogen were homogenized using the Covaris Cryoprep resulting in a fine powder. The powder was then aliquoted using anti-static polypropylene disposable milligram scoops (TWD Tradewinds) resulting in 4-6 mg of tissue per 1.4 ml Thermo matrix tubes. Weights were recorded and metabolite levels were normalized per mg of tissue. HPLC grade water (50 μl) was added into each tube and samples were snap frozen in liquid nitrogen and then stored at −80° C. until extraction. On the day of the extraction, tissue samples were thawed to room temperate and sonicated for 15 mins in an ice bath before mixing at 2000 rpm for a 5 minute and then adding 600 μL of ethyl acetate. Lipids were extracted into ethyl acetate by mixing at 1750 rpm for 1 hr followed by a 10 min centrifugation at 3500 rpm to obtain a clear ethyl acetate layer. Tissue lipid extracts were diluted into an ethyl acetate stock (brain regions diluted 1:10, peripheral tissues 1:5) containing labeled internal standard [^13C-PlsEtn (C37^13C6H74NO7P). Water (40 μL) was added to the diluted extracts and samples were stirred at 1500 rpm for 1 hr followed by a 2 min centrifugation at 3500 rpm.
Plasma extraction was performed on 20 μL aliquots in 1.4 ml Thermo matrix tubes. Lipids were extracted by adding HPLC grade water (50 μl) and ethyl acetate containing labeled internal standard [^13C-PlsEtn (C37^13C6H74NO7P) at 0.2 μg/mL (500 μL) to each plasma sample and then mixing at 1750 rpm for 1 hr followed by a 2 min centrifugation at 3500 rpm for phase separation.
A 100 μL aliquot of the ethyl acetate layer was analyzed using FI-MS/MS on a API4000™ mass spectrometer (Applied Biosystems) coupled with Agilent 1100 HPLC pump and auto sampler. Each transition was scanned for 50 ms with a total acquisition time per sample of 2 min. ethyl acetate:methanol:water ratio of 80:15:5 at a flow rate of 600 μL/min was used as the mobile phase. All standards and stable isotopes used were >95% pure and manufactured by Med-Life Discoveries LP. All the solvents used above were HPLC grade. All samples were analyzed in triplicate to control for any variation resulting from instrument variability. Stable isotope ratios for each analyte were calculated for all tissue and plasma samples (Table 2).

For data set [2], the system named is Pex7 homozygous hypomorphic animals (Pex7^neo/neo). The data set can be described thus: 2 week comparison of plasmalogen precursors: plasmalogen levels in plasma and liver (LC-MS). Type of data set: in vivo, mouse. On the procedure:
Pex7 homozygous hypomorphic animals (Pex7^neo/neo) were used as a model of rhizomelic chondrodysplasia punctata (RCDP). Mice were dosed with either PPI-1011 or PPI-1040 at equimolar concentrations of 100 mg/Kg and 89.7 mg/Kg respectively. PPI-1011 was formulated in Neobee M-5, at a concentration of 12.5 mg/mL and stored at −20° C. until the first treatment day after which point the remaining formulation was stored at 4° C. Oral gavage volumes were adjusted by mouse weight to ensure a 100 mg/kg dose. PPI-1040 was stored in a sealed ampoule in solution with dichloromethane under argon gas until immediately before use. At time of treatment the ampoule was opened and dichloromethane was evaporated off under nitrogen gas for 10 minutes. Neobee M-5 was then added and the solution and vortexed to generate a 22.4 mg/mL formulation. Animals were dosed via intraperitoneal injections with doses adjusted by weight to ensure an 89.7 mg/Kg dose to each animal. Animals were sacrificed 24 hours after the ninth treatment (week 1-Monday to Friday and week 2-Monday to Thursday). Blood samples were collected in EDTA tubes and then spun down in a clinical centrifuge. Plasma samples were stored at −80° C. until thawed for analysis. Tissue samples were harvested and flash frozen in liquid nitrogen and then stored at −80° C. All tissue samples were homogenized using liquid nitrogen, generating a fine powder.
Plasma aliquots of 20 μL were analyzed, while tissues were aliquoted with anti-static polypropylene disposable milligram scoops prior to analysis. Water (200 μL) was added and samples were ice bath sonicated for 30 mins prior to the addition of 600 μL of ethyl acetate. Samples were mixed at 2000 rpm for 15 mins followed by a 10 min centrifugation at 3500 rpm. Tissue samples were diluted into an ethyl acetate (1:4) containing labeled internal standards [^13C-PlsEtn (C37^13C6H74NO7P) and ^13C-PtdEtn (C24^13C19H74NO8P)]. Water (80 μL) was added and samples were again stirred at 2000 rpm for 15 mins followed by a 2 min centrifugation at 3500 rpm. High-throughput analysis method was based on multiple reaction monitoring of one parent/fragment transition for the ion pairs, performed using liquid chromatography-mass spectrometry.

[3] abbreviates: 89.7 mg/Kg intraperitoneal, 2 weeks.
The mark [4] stands for this setting: PPI-1011 100 mg/Kg oral or PPI-1040 89.7 mg/Kg intraperitoneal, 2 weeks.

Where “and” joins values, the source holds several entries; their conditions need not be identical. Equal values may be shown once. Entries after “also recorded” stand apart in the source; their conditions may differ.

For `CC/C=C\C/C=C\C/C=C\C/C=C\C/C=C\C/C=C\CCC(=O)OC(CO/C=C\CCCCCCCCCCCCCC)COP1(=O)NCCO1` (stereo not shown) [PPI-1040, 1-(((Z)-hexadec-1-en-1-yl)oxy)-3-((2-oxido-1,3,2-oxazaphospholidin-2-yl)oxy)propan-2-yl (4Z,7Z,10Z,13Z,16Z,19Z)-docosa-4,7,10,13,16,19-hexaenoate], the “long term potentiation (LTP) of fEPSP” value in data set [1] is “increased LTP compared to vehicle treated controls”. In the data set with Pex7 hypomorph/null mice, the “cerebellum tissue plasmalogen levels” value is “did not show augmentation”; the “cortical tissue plasmalogen levels” value is on record as “did not show augmentation”; the kidney plasmalogen levels entry is listed as “did not display a clear augmentation in any plasmalogen species; also recorded: did not display a significant level of augmentation in any plasmalogen species”; the liver plasmalogen levels result was “increases in 16:0/18:1, 16:0/18:2 and 16:0/22:6 species reaching statistical significance and 16:0/18:1. 16:0/18:2”. For the same compound, in the data set on Pex7 hypomorph/null mice, the lung plasmalogen levels result is “did not display a clear augmentation in any plasmalogen species; also recorded: did not display a significant level of augmentation in any plasmalogen species”, the “plasma level of the target 16:0/22:6 plasmalogen” value was “normalizing the levels of the target 16:0/22:6 plasmalogen”, the “plasma levels of other 16:0 plasmalogens (re-organization at sn-2)” value was “increases in all measured 16:0 plasmalogens with the exception of 16:0/22:4; also recorded: increases in all 16:0 plasmalogens measured except 16:0/22:4” and the “plasma plasmalogen levels (all species measured)” value is recorded as “able to augment plasmalogen levels; also recorded: did effectively augment plasmalogen levels”. Also, in the data set on Pex7 hypomorph/null mice, the “plasma plasmalogens containing 18:0 and 18:1 at sn-1” value is on record as “no augmentation was observed in any of those species”; the “plasmalogen levels in tissues (peripheral and brain)” value is “augmentation observed in the liver, skeletal muscle and small intestine”; the “skeletal muscle plasmalogen levels” value is 16:0/20:5, 16:0/22:6 and total 16:0 plasmalogen pool levels statistically increased; the “small intestine plasmalogen levels” value was 16:0/18:1 and 16:0/18:2 species reaching a statistically significant increase and only 16:0/18:1 and 16:0/18:2 reached significance. Further, in the data set with Pex7 hypomorph/null mice, the “vinyl-acyl and alkyl-acyl glycerol levels” value was “None of the alkyl-acyl or vinyl-acyl glycerol species measured were increased”. Moreover, in data set [2] (setting [3]), the “bioavailability and conversion to endogenous ethanolamine plasmalogen” value was “bioavailable in the mouse”; the “total 16:0 plasmalogen pool in plasma” value is listed as “augmented the total 16:0 plasmalogen to control levels”. Also, in data set [2] (setting [4]), the “16:0 plasmalogen pool in liver” value is on record as “augmented the 16:0 plasmalogen pool in the liver to control levels” and the “target plasmalogen (16:0/22:6) levels in liver” value is on record as “to levels above control”. The “levels of the target plasmalogen (16:0/22:6) in the plasma” value in data set [2] (PPI-1040 89.7 mg/Kg intraperitoneal, 2 weeks (9 treatments)) was determined as 2 × above control.
